Data: US20140243401A1, “METHODS OF SCREENING COMPOUNDS THAT ARE CYTOTOXIC TO TUMOR CELLS AND METHODS OF TREATING TUMOR CELLS USING SUCH COMPOUND” (The Johns Hopkins University, priority 2010, published 2014)
Converted amounts (≈) assume the structure as drawn.

Legend:
[1] = system: MCF7 human breast cancer cells; assay: XTT cytotoxicity assay, MCF7; type: cell-based; conditions: Homo sapiens, MCF7, XTT, MCF-7; for CC50: read-out: LC50 (the source's name)
Protocol: (§1) Cytotoxicity can be easily measured using XTT assays, which provide an indication of mitochondrial activity. The XTT assay is a non-radioactive alternative for the [^51Cr] release cytotoxicity assay. XTT is a tetrazolium salt that is reduced to a formazan dye only by metabolically active, viable cells. The reduction of XTT is measured spectrophotometrically as OD490-OD650. Thus, cells that are actively metabolizing will form reaction product when subjected to XTT measurement.
(§2) For this experiment, cells were cultured under standard culture conditions. MCF7 human breast cancer cells were cultured in DMEM containing 5 mM glucose medium with 10% fetal calf serum, 0.01 mg/ml insulin and 1% penicillin/streptomycin. To measure the cytotoxicity of specific compounds against cancer cells, 9×10^3 MCF7 cells were plated per well in 96-well plates. Following overnight culture, the compounds, dissolved in DMSO, were added to the wells in 1 μl volume at specified concentrations. Vehicle controls were run for each experiment. Each condition was run in triplicate. After 24 to 72 h of incubation, cells were incubated for 4 hours with the XTT reagent as per manufacturer's instructions (Cell Proliferation Kit II (XTT) Roche Diagnostics, New Jersey). Plates were read at OD490 on a PerkinElmer Victor 1420. Three wells containing the XTT reagent without cells served as the plate blank. XTT data were reported as OD490.
MCF7 human breast cancer cells were cultured in DMEM containing 1 mM or 5 mM glucose in the medium with 10% fetal calf serum, 0.01 mg/ml insulin and 1% penicillin/streptomycin. The cells were grown in two oxygen conditions, normoxia (21% 02) or hypoxia (1% 02). To measure the cytotoxicity of specific compounds against cancer cells, 9×10^3 MCF7 cells were plated per well in 96-well plates. Following overnight culture, the compounds, dissolved in DMSO, were added to the wells in 1 μl volume at specified concentrations. After 24 to 72 h of incubation, cells were incubated for 4 h with the XTT reagent as per manufacturer's instructions (Cell Proliferation Kit II (XTT) Roche Diagnostics, New Jersey). Plates were read at OD490 on a PerkinElmer Victor 1420. Three wells containing the XTT reagent without cells served as the plate blank. XTT data were reported as OD490Vehicle controls were run for each experiment. Each condition was run in triplicate.

[2] = system: SKOV3 human ovarian cancer cells; assay: JC-1 staining, mitochondrial membrane potential in SKOV3 cells; type: cell-based; conditions: SKOV3, drug in DMSO applied 30 min prior to staining
Excerpt: JC-1 staining is an indicator of mitochondrial membrane potential; with this assay, mitochondria within cells stained with this fluorescent dye emit a wavelength in the red spectrum when mitochondrial membrane potential is intact. When mitochondria are depolarized, the wavelength of the spectrum emitted changes to green. Therefore, the ratio of red/green fluorescence will give an indication of the intactness of the membrane potential of mitochondria, and thus mitochondrial function.
The left panels show granular red-staining indicating mitochondria with intact membrane potential is brightest in control, and decreases with increasing concentrations of C31. Conversely, the right panels show the diffuse cytoplasmic green-staining which indicates mitochondrial depolarization, is dimmest in control and brightest at the highest concentration of C31 tested. Drug was solubilized in DMSO and applied for 30 min prior to staining.

[3] = system: HCT116 human colon cancer xenograft; assay: tumor xenograft size, HCT116; type: in vivo, Athymic Nude mice; conditions: Study 101707, HCT-116, oral b.i.d. 16 days
Protocol: Xenograft studies were performed using various mmFAS inhibitors disclosed herein. Human cancer xenograft studies are known in the art. (See Pizer et al., Cancer Res. 56:1189-1193, 1996; Pizer et al., Cancer Res. 60: 213-218, 2000; Testa et al., Oncogene 24: 7455-7464, 2005).
In particular, C31 mouse efficacy studies were conducted in order to evaluate anti-neoplastic activity of C31 in vivo. Athymic Nude mice were implanted with HCT116 human colon, SKOV3 human ovarian or OVCAR3 human ovarian cancer cell lines and were treated when the grown tumor xenografts reached at least 150 to 200 mm^3.^1 ^1 Compounds were solubilized in TEP (80% polyethylene glycol (PEG) 400, 10% ethanol, 10% tween-80) in a volume of 50 μL.

[4] = system: Human colon cancer (HCT116); assay: XTT cytotoxicity assay, HCT116; type: cell-based; conditions: for IC50: HCT-116; for CC50: HCT-116, read-out: LC50 (the source's name)
MCF7 cells = assay: 14C-acetate incorporation into lipids in MCF7 cells; type: cell-based, human; conditions: Homo sapiens; MCF7 cells, second experiment
Protocol: (§3) MCF7 human breast cancer cells (a cell line which overexpresses FAS) were cultured in DMEM containing 5 mM glucose medium with 10% fetal calf serum, 0.01 mg/ml insulin and 1% penicillin/streptomycin. For measurement of fatty acid synthesis cells were cultured in 24-well plates at 5×10^4 per well and incubated overnight. Fatty acid synthesis was assayed by a 2 h pulse of [U^14C]acetate, 1 μCi/well, followed by Folch extraction and scintillation counting. Test compounds were added with the addition of drugs as described. Controls were treated with DMSO alone.
as §3, with “cells” for “cells (a cell line which overexpresses FAS)”, “containing 1 mM or” for “containing”, “glucose in the” for “glucose”, “penicillin/streptomycin. The cells were grown in two oxygen conditions, normoxia (21% 02) or hypoxia (1% 02).” for “penicillin/streptomycin.”, “counting” for “counting. Test compounds were added”

[5] = system: Human ovarian cancer (OVCAR); assay: XTT cytotoxicity assay, OVCAR; type: cell-based; conditions: for CC50: read-out: LC50 (the source's name)
Protocol: (See, e.g., Rothman, S., J Clin. Pathol. 39: 672-676, 1986). For example, to measure the cytotoxicity of a test compound against cancer cells, cells (e.g., SKOV-3 cells or OVCAR-3) are plated in 96-well plates. Following overnight culture, the compound is added to the cells at specified concentrations. After 72 hours of incubation, cells are incubated for 4 hours with the XTT reagent as per manufacturer's instructions (Cell Proliferation Kit II (XTT) Roche Diagnostics, New Jersey), and the amount of color produced by viable cells is measured spectrophotometrically. […] is calculated by linear regression, plotting the color produced in treated cells as percent of control (untreated) cells versus drug concentrations.
as §1, §2

mitochondrial FAS = assay: 14C-malonate incorporation into mitochondrial fatty acids, mitochondria isolated from rat liver; type: biochemical; conditions: FIG. 3
Protocol: Mammalian mitochondrial FAS activity may be determined in a variety of ways. For example, [14C]malonate may be added to isolated mitochondria, fatty acids are extracted, and then radioactivity is tested. (See Zhang et al., J. Bio. Chem. 278(41): 40067-40074, 2003; Mikolajczyk, J. and Brody, S., Eur. J. Biochem. 187: 431-437, 1990). The mitochondria are purified using methods known in the art. (See Qiagen's Qproteome Mitochondria Isolation Kit; Methods in Enzymology, Vol. 10, Chapter 11, 1967). To test the inhibition of mmFAS activity, a test compound is added to the reaction mixture. Therefore, a test compound may be screened according the methods described herein as follows: (i) isolating mitochondria; (ii) incubating mitochondria with [14C]malonate with and without a test compound; and (iii) determining the quantity of lipids and/or fatty acids produced. By comparing the amount of product in the presence of the test compound to the amount in its absence, the degree of inhibition can be determined.
Mitochondria from MCF7 cells were prepared following manufacturer's protocol (Mitochondria Isolation Kit, Sigma, Saint Louis, Mo.). Rat liver mitochondria were isolated by homogenization with a tissue homogenizer in H-medium (220 mM mannitol, 70 mM sucrose, 2 mM HEPES, and 0.5 g/L of fatty acid free bovine serum albumin, pH 7.4). The homogenate was centrifuged at 1100 g for 3 min and washed twice with H-medium. The supernatants were pooled and centrifuged at 6800 g for 15 min. The pellet was then rinsed again and centrifuged at 3000 g for 3 min. The mitochondria supernatants were saved. The sediments were resuspended in H-medium and centrifuged at 3000 g for 3 min. The mitochondria supernatants were combined and centrifuged at 20,000 g for 15 min. The resulting mitochondria pellet were rinsed and centrifuged again at 20,000 g for 20 min.
Isolated mitochondria (100-200 μg) were mixed with 50 mM TES-KOH (pH 7.2), 10 mM MgCl2, 0.3 M sorbitol, 0.1% BSA, 1 mM each of ATP, ADP, NADH, NADPH, CoA, DTT and 1 μCi of [2-^14C]malonic acid (50 mCi/mmol) in a total volume of 200 μl. The reaction was performed for 30 min at room temperature. C31, Riv7d or vehicle were added at the beginning of this reaction. At the end of 30 minutes, the mitochondria pellet was separated from supernatant by centrifugation at 14000 rpm for 5 min. After washing with 500 μl of 50 mM TES-KOH (pH 7.2) and 0.3 M sorbitol, the mitochondria were incubated in 200 μl of H2O and 20 μl of 10 M KOH for 15 min at 65° C. Then the samples were added with 40 μl of 5 M H2SO4 and 20 μl of 1 mM palmitic acid (in 1 M acetic acid in isopropanol). The ^14C labeled fatty acids were twice extracted with hexane and sent to scintillation counting after drying.

| SMILES | IC50 [1] [µg/mL] | CC50 [1] [µM] | mitochondrial depolarization (JC-1 staining) [2] | Average Tumor Size Endpoint (% Change) ([3]; 55 mg/kg) | IC50 [4] [µg/mL] | CC50 [4] [µM] | IC50 (MCF7 cells) [µM] | IC50 [5] [µg/mL] | CC50 [5] [µM] | IC50, inhibition of mitochondrial FAS (14C-malonate incorporation) (mitochondrial FAS; isolated mitochondria) [μg per mL] | effect on 14C-malonate incorporation into mitochondrial fatty acids (mitochondrial FAS; mitochondria isolated from rat liver) | Average Tumor Size Endpoint (% Change) ([3]; 53 mg/kg) |
| --- | --- | --- | --- | --- | --- | --- | --- | --- | --- | --- | --- | --- |
| CCCCCCCCC1(C)SC(=O)C=C1OCC(=O)Nc1ccc(OC(F)(F)F)cc1 (centres unmarked) [Compound C145] | 1.8 (≈ 3.92 µM) | 3.9 | depolarization of the mitochondria in the SKOV3 human ovarian cancer cells which is dose-dependent | +236 % Change | 3.5 (≈ 7.62 µM) | 7.6 | 17.8 | 3.3 (≈ 7.18 µM) | 7.2 | – | – | – |
| Oc1cc(Cl)ccc1Oc1ccc(Cl)cc1Cl [Triclosan, triclosan, reference compound] | – | – | – | – | – | – | – | – | – | 3 | inhibitory effect | – |
| CCCCCCCCC1(C)SC(=O)C=C1OCC(=O)Nc1ccc(C(F)(F)F)cc1 (centres unmarked) [Compound C144] | 2.2 (≈ 4.96 µM) | 4.9 | depolarization of the mitochondria in the SKOV3 human ovarian cancer cells which is dose-dependent | – | 4.8 (≈ 10.8 µM) | 10.8 | > 5.6 | 4 (≈ 9.02 µM) | 9 | – | – | −91 |
